From article PMC10687071 (The Journal of Biological Chemistry, 2023)
Positions count from the first letter of the chain named.

Legend:
[1] = target: T1, Y71G mutant EAG1 channels (Mus musculus, UniProt Q60603, Y71G); assay: TEVC recording, imipramine inhibition, Y71G mutant; type: cell-based; settings: Y71G mutant EAG1 channel, +50 mV
T1 construct: expressed in transfected cells; host or cells: Xenopus laevis oocytes injected with cRNA
T1 sequence (Q60603 1-989 Y71G): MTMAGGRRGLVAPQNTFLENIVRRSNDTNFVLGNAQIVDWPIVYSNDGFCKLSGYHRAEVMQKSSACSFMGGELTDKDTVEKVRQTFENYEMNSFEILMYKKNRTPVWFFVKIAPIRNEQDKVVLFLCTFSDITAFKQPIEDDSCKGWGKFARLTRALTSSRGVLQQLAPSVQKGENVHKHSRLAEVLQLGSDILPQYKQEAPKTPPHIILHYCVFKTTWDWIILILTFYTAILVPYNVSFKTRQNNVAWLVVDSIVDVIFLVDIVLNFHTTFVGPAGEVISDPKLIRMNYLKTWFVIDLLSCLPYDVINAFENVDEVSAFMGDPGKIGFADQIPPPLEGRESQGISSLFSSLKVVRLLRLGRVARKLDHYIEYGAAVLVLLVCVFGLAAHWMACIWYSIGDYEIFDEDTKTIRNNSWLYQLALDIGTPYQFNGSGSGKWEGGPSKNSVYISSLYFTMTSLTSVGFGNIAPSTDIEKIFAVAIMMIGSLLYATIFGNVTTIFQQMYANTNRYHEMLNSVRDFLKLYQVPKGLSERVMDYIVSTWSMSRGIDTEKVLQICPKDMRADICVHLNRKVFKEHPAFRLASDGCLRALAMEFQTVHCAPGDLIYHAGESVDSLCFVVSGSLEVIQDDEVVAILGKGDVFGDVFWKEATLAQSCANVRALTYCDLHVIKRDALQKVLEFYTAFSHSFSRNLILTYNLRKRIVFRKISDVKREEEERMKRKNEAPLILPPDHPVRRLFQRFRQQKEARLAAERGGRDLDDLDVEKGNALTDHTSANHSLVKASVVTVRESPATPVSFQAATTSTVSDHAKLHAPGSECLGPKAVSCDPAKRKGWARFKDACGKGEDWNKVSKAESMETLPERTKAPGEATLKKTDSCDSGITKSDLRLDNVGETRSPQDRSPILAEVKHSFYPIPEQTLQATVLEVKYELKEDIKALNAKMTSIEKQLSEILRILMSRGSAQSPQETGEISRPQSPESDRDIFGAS
Source text: (§1) The cDNA encoding wild-type (WT) mouse EAG1 channels in pGH19 vector was kindly provided by G. Robertson (University of Wisconsin-Madison, Madison, WI). The mutant ΔPAS EAG1 channel in pGH19 with the deletion of the PAS domain residues 2 to 130 was generated by Bio Basic Inc and verified by DNA sequencing (Genewiz). Mutant EAG1 channels with single amino acid substitutions were generated by Genewiz and verified by DNA sequencing. cRNA was transcribed using the T7 mMessage mMachine kit (Thermo Fisher Scientific). Defolliculated Xenopus laevis oocytes were purchased from Ecocyte Bioscience or Xenopus1 and injected with the cRNA using a Nanoinject II oocyte injector (Drummond).
(§2) For EAG1 current recordings, oocytes were placed into a handmade chamber containing a bath solution for the current recording. The currents were recorded using a TEVC technique with OC-725C amplifier (Warner Instruments) and pClamp11 software (Molecular Devices). The signals were digitized using Digidata 1550 (Molecular Devices). Patch pipettes were pulled from borosilicate glass and had resistances of 0.7 to 1.5 MΩ. The recording (bath) solution contained 96 mM NaCl, 4 mM KCl, 0.1 mM CaCl2, 1.8 mM MgCl2, and 5 mM HEPES, pH 7.5. The pipette solution contained 3 M KCl. […]

[2] = target: T2, WT EAG1 channels (Mus musculus, UniProt Q60603); assay: TEVC recording of EAG1 currents in Xenopus oocytes, imipramine inhibition, WT channel; type: cell-based; settings: IC50 for imipramine inhibition at +50 mV
T2 construct: expressed in transfected cells; host or cells: Xenopus laevis oocytes injected with cRNA
T2 sequence (Q60603 1-989): T1 sequence (Q60603 1-989 Y71G) with G71Y
Source text: as §1, §2

IC50 [1]: 26.7 ± 3.2 µM
IC50 [2]: 58.1 ± 9.7 µM
SMILES: CN(C)CCCN1c2ccccc2CCc2ccccc21 [imipramine]
